Data published in the NIST ThermoML archive (doi:10.1021/je5005752).

Test: xn = mol fraction of the nth substance listed
Settings: 101 kPa, Liquid; for viscosity: Falling or rolling sphere viscometry; for mass density: Vibrating tube method

CCCC(=O)OCC [ethyl butanoate] + CC(C)CCO
Settings | mass density [kg/m3] | viscosity [mPa·s]
288.15 K, x1 = 0.1001 | 820.68 | 3.238
288.15 K, x1 = 0.2 | 828.59 | 2.255
288.15 K, x1 = 0.3 | 836.24 | 1.754
288.15 K, x1 = 0.4 | 843.64 | 1.414
288.15 K, x1 = 0.5 | 850.77 | 1.184
288.15 K, x1 = 0.6 | 857.71 | 1.031
288.15 K, x1 = 0.7 | 864.47 | 0.9059
288.15 K, x1 = 0.7999 | 871.18 | 0.8213
288.15 K, x1 = 0.8995 | 877.79 | 0.7679
288.15 K, x1 = 1 | 884.16 | 0.7224
293.15 K, x1 = 0.1001 | 816.74 | 2.813
293.15 K, x1 = 0.2 | 824.48 | 2
293.15 K, x1 = 0.3 | 831.95 | 1.575
293.15 K, x1 = 0.4 | 839.17 | 1.285
293.15 K, x1 = 0.5 | 846.15 | 1.086
293.15 K, x1 = 0.6 | 852.95 | 0.953
293.15 K, x1 = 0.7 | 859.56 | 0.8432
293.15 K, x1 = 0.7999 | 866.14 | 0.7689
293.15 K, x1 = 0.8995 | 872.63 | 0.7214
293.15 K, x1 = 1 | 878.9 | 0.6808
298.15 K, x1 = 0.1001 | 812.8 | 2.462
298.15 K, x1 = 0.2 | 820.34 | 1.785
298.15 K, x1 = 0.3 | 827.63 | 1.422
298.15 K, x1 = 0.4 | 834.7 | 1.172
298.15 K, x1 = 0.5 | 841.51 | 0.9993
298.15 K, x1 = 0.6 | 848.16 | 0.8831
298.15 K, x1 = 0.7 | 854.64 | 0.7864
298.15 K, x1 = 0.7999 | 861.09 | 0.7207
298.15 K, x1 = 0.8995 | 867.46 | 0.6784
298.15 K, x1 = 1 | 873.62 | 0.643
303.15 K, x1 = 0.1001 | 808.84 | 2.164
303.15 K, x1 = 0.2 | 816.19 | 1.598
303.15 K, x1 = 0.3 | 823.31 | 1.288
303.15 K, x1 = 0.4 | 830.2 | 1.073
303.15 K, x1 = 0.5 | 836.86 | 0.9221
303.15 K, x1 = 0.6 | 843.37 | 0.8204
303.15 K, x1 = 0.7 | 849.71 | 0.7345
303.15 K, x1 = 0.7999 | 856.02 | 0.6764
303.15 K, x1 = 0.8995 | 862.27 | 0.6389
303.15 K, x1 = 1 | 868.33 | 0.6072
308.15 K, x1 = 0.1001 | 804.86 | 1.914
308.15 K, x1 = 0.2 | 812.02 | 1.439
308.15 K, x1 = 0.3 | 818.96 | 1.172
308.15 K, x1 = 0.4 | 825.69 | 0.9851
308.15 K, x1 = 0.5 | 832.19 | 0.853
308.15 K, x1 = 0.6 | 838.55 | 0.7639
308.15 K, x1 = 0.7 | 844.75 | 0.6872
308.15 K, x1 = 0.7999 | 850.94 | 0.6355
308.15 K, x1 = 0.8995 | 857.07 | 0.6026
308.15 K, x1 = 1 | 863.02 | 0.5736
313.15 K, x1 = 0.1001 | 800.85 | 1.7
313.15 K, x1 = 0.2 | 807.82 | 1.302
313.15 K, x1 = 0.3 | 814.58 | 1.069
313.15 K, x1 = 0.4 | 821.15 | 0.9071
313.15 K, x1 = 0.5 | 827.5 | 0.7907
313.15 K, x1 = 0.6 | 833.71 | 0.7128
313.15 K, x1 = 0.7 | 839.78 | 0.6437
313.15 K, x1 = 0.7999 | 845.83 | 0.5975
313.15 K, x1 = 0.8995 | 851.85 | 0.569
313.15 K, x1 = 1 | 857.7 | 0.5425
318.15 K, x1 = 0.1001 | 796.81 | 1.516
318.15 K, x1 = 0.2 | 803.6 | 1.181
318.15 K, x1 = 0.3 | 810.18 | 0.9787
318.15 K, x1 = 0.4 | 816.58 | 0.8373
318.15 K, x1 = 0.5 | 822.78 | 0.7346
318.15 K, x1 = 0.6 | 828.85 | 0.6658
318.15 K, x1 = 0.7 | 834.78 | 0.6038
318.15 K, x1 = 0.7999 | 840.71 | 0.5626
318.15 K, x1 = 0.8995 | 846.61 | 0.538
318.15 K, x1 = 1 | 852.36 | 0.5132
323.15 K, x1 = 0.1001 | 792.73 | 1.371
323.15 K, x1 = 0.2 | 799.34 | 1.08
323.15 K, x1 = 0.3 | 805.76 | 0.8983
323.15 K, x1 = 0.4 | 811.99 | 0.7743
323.15 K, x1 = 0.5 | 818.03 | 0.6838
323.15 K, x1 = 0.6 | 823.96 | 0.6195
323.15 K, x1 = 0.7 | 829.75 | 0.5672
323.15 K, x1 = 0.7999 | 835.56 | 0.5303
323.15 K, x1 = 0.8995 | 841.34 | 0.5071
323.15 K, x1 = 1 | 847 | 0.487
